Measured values taken from US20100094053A1, “USE OF PERSONAL CARE COMPOSITION” (CONOPCO, INC., D/B/A UNILEVER, priority 2008, published 2010).

Key:
[1] = target: T1, human recombinant CB2 receptor (Homo sapiens, UniProt P34972); test: CB2 receptor inhibition binding assay ([3H]-CP-55,940 displacement); settings: 0.084 nM [3H]-CP-55,940, 90 minutes at 30° C
T1 construct: expressed in transfected cells; host or cells: HEK-293
Procedure: (§1) Ki values were calculated by applying the Cheng-Prusoff equation to the IC50 values (obtained by GraphPad) for the displacement of the bound radioligand by increasing concentrations of the test compound.

[2] = target: T2, human recombinant CB1 receptor (Homo sapiens, UniProt P21554); test: CB1 receptor inhibition binding assay ([3H]-CP-55,940 displacement)
T2 construct: expressed in transfected cells; host or cells: HEK-293
Procedure: as §1

[3] = system: histamine induced scalp itch; test: Clinical assessment of histamine induced scalp itch (histamine iontophoresis, half head study); type: in vivo, human; settings: 1.5% v/v CMEA in ethanol, 30 μl patch on scalp for 24 h, then histamine iontophoresis
Procedure: Cocomonoethanolamide (CMEA) efficacy against itch was assessed using histamine iontophoresis. CMEA (1.5% v/v) was made up in 100% ethanol. The same concentration of ethanol was used as the vehicular control. A total of 31 subjects completed the randomised, double blind, half head clinical study. Volunteers were initially familiarised with the iontophoresis equipment and test protocol prior to study commencement. Following this phase, product application was commenced. Two sites were selected on each side of the head approximately halfway between the top of the ear and the apex of the head. An area of 2 cm^2 was carefully trimmed close to the scalp. Both the CMEA test solution and the ethanol control (30 μl each) were applied to a filter paper and placed in a 12 mm Finn chamber, which was attached the scalp with adhesive tape. Volunteers kept the patch in place for a period of 24 h. The chambers were then removed from the scalp and each application site received a histamine challenge via iontophoresis. Subjects scored perceived itch throughout the procedure by sliding an indicator up or down a Visual Analogue Score (VAS; calibrated in gradient fashion from 0 (none) to 100% (extremely intense)) to indicate itch intensity in real time. Data are expressed as the mean area under the curve+/−S.E. (standard error of the mean).

T2 sequence (P21554 whole entry): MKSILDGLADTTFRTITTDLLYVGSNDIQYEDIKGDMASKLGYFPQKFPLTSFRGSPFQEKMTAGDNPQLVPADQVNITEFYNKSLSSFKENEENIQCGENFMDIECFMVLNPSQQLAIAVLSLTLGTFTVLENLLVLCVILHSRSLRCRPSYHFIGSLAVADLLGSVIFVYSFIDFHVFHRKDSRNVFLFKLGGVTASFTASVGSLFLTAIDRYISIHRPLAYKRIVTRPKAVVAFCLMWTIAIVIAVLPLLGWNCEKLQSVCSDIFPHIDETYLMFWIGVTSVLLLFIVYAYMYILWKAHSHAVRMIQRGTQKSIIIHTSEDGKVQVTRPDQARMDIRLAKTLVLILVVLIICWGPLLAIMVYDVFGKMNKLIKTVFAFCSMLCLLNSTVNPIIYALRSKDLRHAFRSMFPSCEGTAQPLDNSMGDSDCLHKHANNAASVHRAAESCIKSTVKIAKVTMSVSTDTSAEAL
T1 sequence (P34972 whole entry): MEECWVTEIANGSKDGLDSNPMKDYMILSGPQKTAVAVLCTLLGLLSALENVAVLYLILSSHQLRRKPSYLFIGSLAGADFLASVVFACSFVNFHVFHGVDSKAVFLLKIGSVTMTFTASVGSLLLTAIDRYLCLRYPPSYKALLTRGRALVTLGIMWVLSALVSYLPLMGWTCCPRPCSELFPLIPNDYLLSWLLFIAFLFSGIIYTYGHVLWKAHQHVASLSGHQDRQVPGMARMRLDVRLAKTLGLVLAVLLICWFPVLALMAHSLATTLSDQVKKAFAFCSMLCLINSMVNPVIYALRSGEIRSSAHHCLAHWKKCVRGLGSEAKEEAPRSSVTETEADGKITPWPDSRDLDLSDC

## Cocomonoethanolamide [CMEA]
[1]; HEK-293 cells transfected with human recombinant CB2 receptor
  IC50 for displacement of [3H]-CP-55,940 at CB2 receptor: 8.19 µg/mL
[1]; calculated by Cheng-Prusoff equation from IC50
  Ki at CB2 receptor: 6.44 µg/mL
[2]; HEK-293 cells transfected with human recombinant CB1 receptor, 0.14 nM [3H]-CP-55,940, 90 minutes at 30° C
  IC50 for displacement of [3H]-CP-55,940 at CB1 receptor: 5.08 µg/mL
[2]; calculated by Cheng-Prusoff equation from IC50, 0.14 nM [3H]-CP-55,940, 90 minutes at 30° C
  Ki at CB1 receptor: 2.85 µg/mL
[2]; comparison of CB1 and CB2 binding data
  binding affinity, CB1R compared with CB2R: higher for the CB1R than for CB2R
[3]; 31 subjects
  Visual Analogue Score (area under the curve; mean +/− S.E.M.): 74942 (9625)
[3]; versus ethanol control, P<0.02
  reduction of perceived scalp itch: 16.6%
